Data as given in US20240158370A1, “CK1 alpha AND DUAL CK1 alpha / GSPT1 DEGRADING COMPOUNDS” (Innovo Therapeutics, Inc., priority 2022, published 2024).

Assays:
GSPT1 = GSPT1 (Homo sapiens, UniProt P15170+Q96SW2); assay: HiBiT degradation assay, GSPT1, Procedure A; format: cell-based; design: HiBit-GSPT1 KI HEK293(LgBit) Cells; host or cells: HEK293(LgBit) knock-in cells; conditions: six hours incubation
Outline: (§1)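 Cells in DMEM + 10% FBS were treated with compound in a ten-point dose response from 10 μM to 0.005 μM (0.1% DMSO) for six hours at 37° C. Lysis with Nano-Glo HiBiT detection reagent followed, with luminescence read. DC50 and Ymin came from a 4-parameter fit.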

CK1α = biological target: T1, CK1α (Homo sapiens, UniProt P48729+Q96SW2); assay: HiBiT degradation assay, CK1α, Procedure A; format: cell-based; conditions: six hours incubation
T1 construct: CSNK1A1-HiBit KI HEK293(LgBit) Cells; host or cells: HEK293(LgBit) knock-in cells
T1 sequence (P48729 whole entry): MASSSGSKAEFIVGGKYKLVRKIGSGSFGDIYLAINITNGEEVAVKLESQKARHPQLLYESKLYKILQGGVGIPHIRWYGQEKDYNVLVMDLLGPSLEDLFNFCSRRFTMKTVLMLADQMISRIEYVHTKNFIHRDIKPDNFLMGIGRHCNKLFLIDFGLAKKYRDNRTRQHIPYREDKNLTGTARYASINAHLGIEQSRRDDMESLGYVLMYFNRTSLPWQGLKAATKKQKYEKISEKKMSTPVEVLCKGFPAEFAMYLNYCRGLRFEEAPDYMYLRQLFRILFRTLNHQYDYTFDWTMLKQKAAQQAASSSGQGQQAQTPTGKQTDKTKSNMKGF
T1 sequence (Q96SW2 whole entry): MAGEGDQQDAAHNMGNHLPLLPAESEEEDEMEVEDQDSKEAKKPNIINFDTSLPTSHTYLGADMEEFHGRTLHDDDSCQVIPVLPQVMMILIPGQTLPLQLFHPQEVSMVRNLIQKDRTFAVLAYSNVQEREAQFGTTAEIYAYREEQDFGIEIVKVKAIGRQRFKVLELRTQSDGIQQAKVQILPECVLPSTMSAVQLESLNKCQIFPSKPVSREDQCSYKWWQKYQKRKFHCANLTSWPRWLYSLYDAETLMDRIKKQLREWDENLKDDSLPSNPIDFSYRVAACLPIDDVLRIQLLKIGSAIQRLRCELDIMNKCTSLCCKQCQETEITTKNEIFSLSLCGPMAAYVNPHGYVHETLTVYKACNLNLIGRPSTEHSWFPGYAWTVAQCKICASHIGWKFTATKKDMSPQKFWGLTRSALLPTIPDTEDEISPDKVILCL
T1 sequence (Q16531 whole entry partner): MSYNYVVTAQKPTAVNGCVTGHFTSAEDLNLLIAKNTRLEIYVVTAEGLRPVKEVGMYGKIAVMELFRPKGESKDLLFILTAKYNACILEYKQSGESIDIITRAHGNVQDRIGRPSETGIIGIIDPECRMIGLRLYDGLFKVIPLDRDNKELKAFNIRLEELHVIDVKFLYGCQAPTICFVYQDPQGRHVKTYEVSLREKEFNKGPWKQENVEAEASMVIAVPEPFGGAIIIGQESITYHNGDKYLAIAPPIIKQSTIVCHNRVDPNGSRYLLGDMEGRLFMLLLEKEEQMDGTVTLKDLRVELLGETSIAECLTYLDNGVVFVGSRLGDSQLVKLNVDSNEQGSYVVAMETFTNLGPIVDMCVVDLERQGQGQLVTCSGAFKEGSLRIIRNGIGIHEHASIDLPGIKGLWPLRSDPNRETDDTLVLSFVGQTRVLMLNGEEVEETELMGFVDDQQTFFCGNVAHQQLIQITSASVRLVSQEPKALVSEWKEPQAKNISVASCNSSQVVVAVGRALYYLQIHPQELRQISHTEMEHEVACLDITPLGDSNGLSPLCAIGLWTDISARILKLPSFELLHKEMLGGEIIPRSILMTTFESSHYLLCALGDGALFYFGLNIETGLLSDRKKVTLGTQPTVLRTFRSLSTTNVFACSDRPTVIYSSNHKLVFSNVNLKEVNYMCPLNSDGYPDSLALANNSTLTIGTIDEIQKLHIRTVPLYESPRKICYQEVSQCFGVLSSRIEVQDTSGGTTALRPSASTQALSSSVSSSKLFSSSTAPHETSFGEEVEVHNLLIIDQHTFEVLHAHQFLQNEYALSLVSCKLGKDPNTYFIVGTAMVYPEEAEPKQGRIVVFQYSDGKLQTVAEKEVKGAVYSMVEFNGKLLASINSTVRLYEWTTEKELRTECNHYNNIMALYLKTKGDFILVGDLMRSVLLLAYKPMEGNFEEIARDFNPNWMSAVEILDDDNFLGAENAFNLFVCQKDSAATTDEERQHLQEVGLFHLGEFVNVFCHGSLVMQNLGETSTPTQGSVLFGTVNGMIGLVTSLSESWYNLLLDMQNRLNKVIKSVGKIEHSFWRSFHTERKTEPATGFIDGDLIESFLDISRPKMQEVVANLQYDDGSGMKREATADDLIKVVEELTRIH
Outline: as §1

Sequence of GSPT1 (P15170 whole entry): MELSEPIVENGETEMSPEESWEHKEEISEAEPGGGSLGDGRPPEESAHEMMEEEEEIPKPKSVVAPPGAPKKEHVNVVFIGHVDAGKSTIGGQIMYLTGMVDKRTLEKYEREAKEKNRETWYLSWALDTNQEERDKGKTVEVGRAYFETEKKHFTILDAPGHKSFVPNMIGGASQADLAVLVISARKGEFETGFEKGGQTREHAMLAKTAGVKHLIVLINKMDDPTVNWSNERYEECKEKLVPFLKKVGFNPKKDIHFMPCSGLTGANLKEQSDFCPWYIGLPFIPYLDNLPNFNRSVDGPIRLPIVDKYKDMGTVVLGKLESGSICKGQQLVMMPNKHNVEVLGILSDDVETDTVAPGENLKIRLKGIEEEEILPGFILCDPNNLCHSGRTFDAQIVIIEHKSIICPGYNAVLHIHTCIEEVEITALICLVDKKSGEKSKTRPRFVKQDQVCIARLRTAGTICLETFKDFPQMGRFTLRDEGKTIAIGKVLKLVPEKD
Sequence of GSPT1 (Q96SW2 whole entry): as the sequence (Q96SW2 whole entry) above
Sequence of GSPT1 (Q16531 whole entry partner): as the sequence (Q16531 whole entry partner) above

With `CNC(=O)c1cccc(-c2c(-c3ccc4c(c3)CN(C3CCC(=O)NC3=O)C4=O)cnn2C)c1` (stereo not drawn) [Example 122] as the compound, how does the DC50 (GSPT1) read?
The DC50 was at least 25 nM.

And the “GSPT1 Ymin” value (GSPT1)?
Its value is “F (F = >75-100% remaining)”.

And the “CK1α Ymin” value (CK1α)?
The value was “E (E = >25-75% remaining)”.

What about the DC50 (CK1α) of the same compound?
Its DC50 is at least 25 nM.

For `Cn1ncc(-c2ccc3c(c2)CN(C2CCC(=O)NC2=O)C3=O)c1-c1cccc(C#N)c1` (stereo not drawn) [Example 123], which DC50 (GSPT1) is on record?
The DC50 was at least 25 nM.

What about the “GSPT1 Ymin” value (GSPT1) of the same compound?
The value was “F (F = >75-100% remaining)”.

What about the “CK1α Ymin” value (CK1α) of the same compound?
The value was “E (E = >25-75% remaining)”.

And the DC50 (CK1α)?
Its DC50 is under 25 nM.

With `Cn1ncc(-c2ccc3c(c2)CN(C2CCC(=O)NC2=O)C3=O)c1-c1ccc(N)cc1` (stereo not drawn) [Example 124] as the compound, how does the DC50 (GSPT1) read?
Its DC50 is at least 25 nM.

And the “GSPT1 Ymin” value (GSPT1)?
The value was “F (F = >75-100% remaining)”.

What about the “CK1α Ymin” value (CK1α) of the same compound?
The value was “C (C = 0-10% remaining)”.

What about the DC50 (CK1α) of the same compound?
Its DC50 is under 25 nM.

What does the source list for `Cc1c(F)cccc1-c1c(-c2ccc3c(c2)CN(C2CCC(=O)NC2=O)C3=O)cnn1C` (stereo not drawn) [Example 125]?
DC50 (GSPT1): ≥ 25 nM; GSPT1 Ymin (GSPT1): F (F = >75-100% remaining); CK1α Ymin (CK1α): E (E = >25-75% remaining); DC50 (CK1α): < 25 nM

Which DC50 (GSPT1) does the source give for `Cc1ccsc1-c1c(-c2ccc3c(c2)CN(C2CCC(=O)NC2=O)C3=O)cnn1C` (stereo not drawn) [Example 126] here?
Its DC50 is at least 25 nM.

And the “GSPT1 Ymin” value (GSPT1)?
Its value is “F (F = >75-100% remaining)”.

What about the “CK1α Ymin” value (CK1α) of the same compound?
The value was “D (D = >10- 25% remaining)”.

And the DC50 (CK1α)?
The DC50 was under 25 nM.

`Cn1ncc(-c2ccc3c(c2)CN(C2CCC(=O)NC2=O)C3=O)c1-c1ccccc1N` (stereo not drawn) [Example 127] was tested. Which DC50 (GSPT1) did it give?
The DC50 was at least 25 nM.

And the “GSPT1 Ymin” value (GSPT1)?
Its value is “F (F = >75-100% remaining)”.

What about the “CK1α Ymin” value (CK1α) of the same compound?
Its value is “E (E = >25-75% remaining)”.

And the DC50 (CK1α)?
Its DC50 is under 25 nM.

With `Cc1csc(-c2c(-c3ccc4c(c3)CN(C3CCC(=O)NC3=O)C4=O)cnn2C)c1` (stereo not drawn) [Example 128] as the compound, how does the DC50 (GSPT1) read?
The DC50 was at least 25 nM.

And the “GSPT1 Ymin” value (GSPT1)?
The value was “F (F = >75-100% remaining)”.

And the “CK1α Ymin” value (CK1α)?
The value was “D (D = >10- 25% remaining)”.

And the DC50 (CK1α)?
The DC50 was under 25 nM.

Which DC50 (GSPT1) does the source give for `Cn1ncc(-c2ccc3c(c2)CN(C2CCC(=O)NC2=O)C3=O)c1-c1cccc(Cl)c1` (stereo not drawn) [Example 129] here?
Its DC50 is at least 25 nM.

And the “GSPT1 Ymin” value (GSPT1)?
Its value is “F (F = >75-100% remaining)”.

And the “CK1α Ymin” value (CK1α)?
Its value is “E (E = >25-75% remaining)”.

What about the DC50 (CK1α) of the same compound?
The DC50 was under 25 nM.

How did the DC50 (GSPT1) turn out when `Cn1ncc(-c2ccc3c(c2)CN(C2CCC(=O)NC2=O)C3=O)c1-c1ccc(F)cc1F` (stereo not drawn) [Example 130] was run?
The DC50 was at least 25 nM.

What about the “GSPT1 Ymin” value (GSPT1) of the same compound?
The value was “F (F = >75-100% remaining)”.

What about the “CK1α Ymin” value (CK1α) of the same compound?
The value was “E (E = >25-75% remaining)”.

And the DC50 (CK1α)?
The DC50 was under 25 nM.

With `Cn1ncc(-c2ccc3c(c2)CN(C2CCC(=O)NC2=O)C3=O)c1-c1ccsc1Cl` (stereo not drawn) [Example 131] as the compound, how does the DC50 (GSPT1) read?
Its DC50 is at least 25 nM.

And the “GSPT1 Ymin” value (GSPT1)?
Its value is “F (F = >75-100% remaining)”.

And the “CK1α Ymin” value (CK1α)?
The value was “E (E = >25-75% remaining)”.

And the DC50 (CK1α)?
The DC50 was under 25 nM.

With `Cn1ncc(-c2ccc3c(c2)CN(C2CCC(=O)NC2=O)C3=O)c1-c1ccccc1Cl` (stereo not drawn) [Example 132] as the compound, how does the DC50 (GSPT1) read?
The DC50 was at least 25 nM.

What about the “GSPT1 Ymin” value (GSPT1) of the same compound?
Its value is “F (F = >75-100% remaining)”.

And the “CK1α Ymin” value (CK1α)?
Its value is “E (E = >25-75% remaining)”.

What about the DC50 (CK1α) of the same compound?
The DC50 was under 25 nM.

How did the DC50 (GSPT1) turn out when `Cn1ncc(-c2ccc3c(c2)CN(C2CCC(=O)NC2=O)C3=O)c1-c1ccc(Oc2cccnc2)cc1` (stereo not drawn) [Example 133] was run?
Its DC50 is at least 25 nM.

And the “GSPT1 Ymin” value (GSPT1)?
Its value is “F (F = >75-100% remaining)”.

And the “CK1α Ymin” value (CK1α)?
Its value is “E (E = >25-75% remaining)”.

What about the DC50 (CK1α) of the same compound?
Its DC50 is at least 25 nM.

What does the source list for `Cn1ncc(-c2ccc3c(c2)CN(C2CCC(=O)NC2=O)C3=O)c1-c1ccc(F)c(F)c1` (stereo not drawn) [Example 134]?
DC50 (GSPT1): ≥ 25 nM; GSPT1 Ymin (GSPT1): F (F = >75-100% remaining); CK1α Ymin (CK1α): E (E = >25-75% remaining); DC50 (CK1α): < 25 nM

Which results are given for `Cn1ncc(-c2ccc3c(c2)CN(C2CCC(=O)NC2=O)C3=O)c1-c1cccc(F)c1` (stereo not drawn) [Example 135]?
DC50 (GSPT1): ≥ 25 nM; GSPT1 Ymin (GSPT1): F (F = >75-100% remaining); CK1α Ymin (CK1α): E (E = >25-75% remaining); DC50 (CK1α): < 25 nM

Which results are given for `Cn1ncc(-c2ccc3c(c2)CN(C2CCC(=O)NC2=O)C3=O)c1-c1ccc2ccccc2c1` (stereo not drawn) [Example 136]?
DC50 (GSPT1): ≥ 25 nM; GSPT1 Ymin (GSPT1): F (F = >75-100% remaining); CK1α Ymin (CK1α): D (D = >10- 25% remaining); DC50 (CK1α): < 25 nM

With `COc1ccc(C)cc1-c1c(-c2ccc3c(c2)CN(C2CCC(=O)NC2=O)C3=O)cnn1C` (stereo not drawn) [Example 137] as the compound, how does the DC50 (GSPT1) read?
Its DC50 is under 25 nM.

And the “GSPT1 Ymin” value (GSPT1)?
The value was “F (F = >75-100% remaining)”.

What about the “CK1α Ymin” value (CK1α) of the same compound?
Its value is “E (E = >25-75% remaining)”.

What about the DC50 (CK1α) of the same compound?
The DC50 was under 25 nM.

Which results are given for `Cn1ncc(-c2ccc3c(c2)CN(C2CCC(=O)NC2=O)C3=O)c1-c1cccc(C(N)=O)c1` (stereo not drawn) [Example 138]?
DC50 (GSPT1): < 25 nM; GSPT1 Ymin (GSPT1): F (F = >75-100% remaining); CK1α Ymin (CK1α): E (E = >25-75% remaining); DC50 (CK1α): ≥ 25 nM

`Cn1ncc(-c2ccc3c(c2)CN(C2CCC(=O)NC2=O)C3=O)c1-c1cc(F)cc(F)c1` (stereo not drawn) [Example 139] was tested. Which DC50 (GSPT1) did it give?
Its DC50 is under 25 nM.

What about the “GSPT1 Ymin” value (GSPT1) of the same compound?
Its value is “F (F = >75-100% remaining)”.

What about the “CK1α Ymin” value (CK1α) of the same compound?
The value was “E (E = >25-75% remaining)”.

What about the DC50 (CK1α) of the same compound?
Its DC50 is at least 25 nM.
